From patent US11993600B2, “Saturated spirocyclics as antiviral agents” (ENANTA PHARMACEUTICALS, INC., priority 2021, dated 2024) come the findings set out here.

As a reminder, the IC50 is the concentration that inhibits the measured activity by half.

The experiment concerns the target SARS-CoV-2 3CL-protease (Severe acute respiratory syndrome coronavirus 2 (2019-nCoV) (SARS-CoV-2), UniProt P0DTD1). In words: SARS-CoV-2 3C-like (3CL) protease fluorescence assay (FRET). The class given is biochemical. The following applies: recombinant SARS-CoV-2 3CL-protease 10 nM, 30 min preincubation at RT, substrate 40 μM, run in duplicate.
As to `CN(C(=O)c1cc2c(F)cc(F)cc2[nH]1)[C@@H](CC(C)(C)F)C(=O)N1C[C@]2(CCNC2=O)C[C@H]1C#N` [Compound 1, N—((S)-1-((3S,5S)-3-cyano-6-oxo-2,7-diazaspiro[4.4]nonan-2-yl)-4-fluoro-4-methyl-1-oxopentan-2-yl)-4,6-difluoro-N-methyl-1H-indole-2-carboxamide], the IC50 was less than 100 nM. As for `CC(C)C[C@@H](C(=O)N1C[C@]2(CCCNC2=O)C[C@H]1C#N)N(C)C(=O)c1cc2c(F)cc(F)cc2[nH]1` [Compound 2, N—((S)-1-((3S,5S)-3-cyano-6-oxo-2,7-diazaspiro[4.5]decan-2-yl)-4-methyl-1-oxopentan-2-yl)-4,6-difluoro-N-methyl-1H-indole-2-carboxamide], the IC50 is less than 100 nM. In the case of `CN(C(=O)c1cc2c(F)cc(F)cc2[nH]1)[C@@H](CC(C)(C)F)C(=O)N1C[C@]2(CCCNC2=O)C[C@H]1C#N` [Compound 3, N—((S)-1-((3S,5S)-3-cyano-6-oxo-2,7-diazaspiro[4.5]decan-2-yl)-4-fluoro-4-methyl-1-oxopentan-2-yl)-4,6-difluoro-N-methyl-1H-indole-2-carboxamide], the IC50 was less than 100 nM. Take `CC(C)C[C@@H](C(=O)N1C[C@]2(CCC3(CC3)NC2=O)C[C@H]1C#N)N(C)C(=O)c1cc2c(F)cc(F)cc2[nH]1` [Compound 4, N—((S)-1-((6S,9S)-9-cyano-5-oxo-4,8-diazadispiro[2.2.4^6.2^3]dodecan-8-yl)-4-methyl-1-oxopentan-2-yl)-4,6-difluoro-N-methyl-1H-indole-2-carboxamide]: the IC50 is less than 100 nM.
